The results in this text go back to publication PMC2705520, “Inactivation and Unfolding of the Hyperthermophilic Inorganic Pyrophosphatase from Thermus thermophilus by Sodium Dodecyl Sulfate” (2009).

In data set [1] the target is T1, Inorganic pyrophosphatase (T-PPase) (Thermus thermophilus, UniProt Q72H95).
T1 construct: gene ppa
T1 sequence (Q72H95 1-175): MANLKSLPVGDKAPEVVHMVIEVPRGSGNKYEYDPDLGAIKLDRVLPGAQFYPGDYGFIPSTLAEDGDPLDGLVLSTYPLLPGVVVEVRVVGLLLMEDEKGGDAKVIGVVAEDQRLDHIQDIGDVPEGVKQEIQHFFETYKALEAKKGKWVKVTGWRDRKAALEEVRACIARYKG
The data set is described as follows: PPase activity assay (phosphomolybdate); Lineweaver-Burk and secondary replots, mixed type reversible inhibition. Format: biochemical. The source says:
PPase activity assay (phosphomolybdate); Lineweaver-Burk and secondary replots, mixed type reversible inhibition on Inorganic pyrophosphatase (T-PPase) | Then the apparent inhibition constant could be calculated from Equations.

Substrate in the data set “purified protein”: O=P(O)(O)OP(=O)(O)O
The data set is described as follows: purified protein. The note with it: Mg2+ active site cavity formed by conserved polar residues, with Mg2+ ions.

Where a name gives a salt, the structure may show the parent alone.

As to `CCCCCCCCCCCCOS(=O)(=O)O` [Sodium dodecyl sulfate], the Ki in data set [1] amounted to 3.4 mM.

B1: Inorganic pyrophosphatase (T-PPase) (Thermus thermophilus HB27) (protein)
chain: T1 sequence (Q72H95 1-175)
Turning to B1, the Km in the data set “purified protein” is 420 ± 40 µM.

In general, Ki refers to a dissociation constant, usually derived from enzyme kinetics or from competition with a known ligand. In general, Km refers to the concentration of substrate that gives half-maximal velocity.
